In PMC6422671 (British Journal of Clinical Pharmacology, 2019):
Read-outs that look alike come from different tables or passages of the source.

What was measured:
[1] = Urinary pharmacokinetics after single oral dose, phase I; format: in vivo, healthy men; conditions: male, human, urine
Experimental: Urine was collected for pharmacokinetic analyses before dosing (spot sample) and 0–3, 3–6, 6–9, 9–12, 12–24, 24–36 and 36–48 hours after dosing (pooled samples). Samples for determination of AZD4831 in urine were analysed by Covance Laboratories Ltd. (Harrogate, UK). […] This method was validated prior to sample analysis in the range 20–20 000 nmol L^−1 in urine, using a 25 μL sample aliquot.

[2] = Plasma pharmacokinetics after single oral dose, phase I; data geometric mean (coefficient of variation), t max median (range); format: in vivo, healthy men; conditions: for AUC(0-inf) / AUC(0-t) / Cmax / Tmax / Vd/F / half-life: male, human, plasma; for Tmax: median (range); for Vd/F: read-out: Vz/F
Experimental: Participants fasted overnight for at least 10 hours before dosing. […] Participants resided at the study centre until 48 hours postdose and attended a follow‐up visit 7–10 days after dosing.
This dose was selected by the Safety Review Committee based on all available data for one or more higher doses in part A. Participants once again resided at the study centre until 48 hours postdose and attended a follow‐up visit 7–10 days after dosing.
Blood samples were collected only up to 48 hours after dosing for the first cohort; the sampling schedule was amended thereafter to include the later time points. Samples for determination of AZD4831 in plasma were analysed by Covance Laboratories Ltd. (Harrogate, UK). […] This method was validated prior to sample analysis in the range 2–2000 nmol L^−1 in plasma, using a 25 μL sample aliquot.

[3] = parameters: method as in E Michaëlsson et al., manuscript in preparation; conditions: ref E Michaëlsson et al., manuscript in preparation; cited from earlier work
CYP3A4 = tested on: CYP3A4; parameters: method as in unpublished data; conditions: in vitro; ref unpublished data; cited from earlier work
[4] = tested on: urate anion exchanger 1 (URAT1; SLC22A12); parameters: method as in E Michaëlsson et al., manuscript in preparation; conditions: in vitro; ref E Michaëlsson et al., manuscript in preparation; cited from earlier work
[5] = 45 mg after high-fat, high-calorie meal vs fasting

**Q.** Which CL renal ([1]; 5 mg, 5 mg fasted, geometric mean (CV), read-out: CLR (converted)) does the source give for `C[C@@H](N)c1cc(Cl)ccc1Cn1c(=S)[nH]c(=O)c2[nH]ccc21` [AZD4831] here?
**A.** The CL renal was 252 mL/min.

**Q.** What about the CL renal ([1]; 5 mg, 5 mg fasted, read-out: mean renal clearance (converted)) of the same compound?
**A.** Its CL renal is 257 mL/min.

**Q.** What about the CL renal ([1]; 15 mg, 15 mg fasted, geometric mean (CV), read-out: CLR (converted)) of the same compound?
**A.** The CL renal was 240 mL/min.

**Q.** And the CL renal ([1]; 45 mg, 45 mg fasted, geometric mean (CV), read-out: CLR (converted))?
**A.** Its CL renal is 162 mL/min.

**Q.** What about the CL renal ([1]; 135 mg, 135 mg fasted, geometric mean (CV), read-out: CLR (converted)) of the same compound?
**A.** Its CL renal is 157 mL/min.

**Q.** And the CL renal ([1]; 405 mg, 405 mg fasted, geometric mean (CV), read-out: CLR (converted))?
**A.** The CL renal was 132 mL/min.

**Q.** And the CL renal ([1]; 405 mg, 405 mg fasted, read-out: mean renal clearance (converted))?
**A.** The CL renal was 148 mL/min.

**Q.** What about the “delay of t max by food” value [2, 5] of the same compound?
**A.** The value was 2.5 h.

**Q.** And the “reduction of Cmax by food” value [2, 5]?
**A.** Its value is 44%.

**Q.** And the “effect of food on AUC0–∞” value ([2]; 45 mg fed vs fasted)?
**A.** Its value is “slightly reduced”.

**Q.** And the “effect of food on t 1/2λz” value ([2]; 45 mg fed vs fasted)?
**A.** The value was “slightly increased”.

**Q.** And the AUC(0-inf) ([2]; oral, 5 mg, 5 mg fasted)?
**A.** The AUC(0-inf) was 0.514 µM·h.

**Q.** And the AUC(0-t) ([2]; oral, 5 mg, 5 mg fasted)?
**A.** The AUC(0-t) was 0.294 µM·h.

**Q.** What about the Cmax ([2]; oral, 5 mg, 5 mg fasted) of the same compound?
**A.** Its Cmax is 15 nM.

**Q.** And the Tmax ([2]; oral, 5 mg, 5 mg fasted)?
**A.** The Tmax was 1 h.

**Q.** And the Vd/F ([2]; oral, 5 mg, 5 mg fasted, n = 4)?
**A.** The Vd/F was 1580 L.

**Q.** What about the half-life ([2]; oral, 5 mg, 5 mg fasted, n = 4, read-out: t 1/2λz (converted)) of the same compound?
**A.** Its half-life is 37.6 h.

**Q.** What about the AUC(0-inf) ([2]; oral, 15 mg, 15 mg fasted) of the same compound?
**A.** Its AUC(0-inf) is 1.67 µM·h.

**Q.** What about the AUC(0-t) ([2]; oral, 15 mg, 15 mg fasted) of the same compound?
**A.** The AUC(0-t) was 1.44 µM·h.

**Q.** And the Cmax ([2]; oral, 15 mg, 15 mg fasted)?
**A.** Its Cmax is 83.4 nM.

**Q.** And the Tmax ([2]; oral, 15 mg, 15 mg fasted)?
**A.** The Tmax was 0.74 h.

**Q.** And the Vd/F ([2]; oral, 15 mg, 15 mg fasted)?
**A.** The Vd/F was 1750 L.

**Q.** And the half-life ([2]; oral, 15 mg, 15 mg fasted, read-out: t 1/2λz (converted))?
**A.** The half-life was 45.2 h.

**Q.** And the AUC(0-inf) ([2]; oral, 45 mg, 45 mg fasted)?
**A.** The AUC(0-inf) was 6.69 µM·h.

**Q.** What about the AUC(0-t) ([2]; oral, 45 mg, 45 mg fasted) of the same compound?
**A.** Its AUC(0-t) is 6.13 µM·h.

**Q.** What about the Cmax ([2]; oral, 45 mg, 45 mg fasted) of the same compound?
**A.** Its Cmax is 326 nM.

**Q.** What about the Tmax ([2]; oral, 45 mg, 45 mg fasted) of the same compound?
**A.** Its Tmax is 0.51 h.

**Q.** What about the Vd/F ([2]; oral, 45 mg, 45 mg fasted) of the same compound?
**A.** The Vd/F was 1450 L.

**Q.** What about the half-life ([2]; oral, 45 mg, 45 mg fasted, read-out: t 1/2λz (converted)) of the same compound?
**A.** The half-life was 49.9 h.

**Q.** What about the AUC(0-inf) ([2]; oral, 45 mg, 45 mg fed) of the same compound?
**A.** Its AUC(0-inf) is 5.79 µM·h.

**Q.** And the AUC(0-t) ([2]; oral, 45 mg, 45 mg fed)?
**A.** Its AUC(0-t) is 5.37 µM·h.

**Q.** What about the Cmax ([2]; oral, 45 mg, 45 mg fed) of the same compound?
**A.** Its Cmax is 184 nM.

**Q.** What about the Tmax ([2]; oral, 45 mg, 45 mg fed) of the same compound?
**A.** The Tmax was 3 h.

**Q.** What about the Vd/F ([2]; oral, 45 mg, 45 mg fed) of the same compound?
**A.** Its Vd/F is 1940 L.

**Q.** What about the half-life ([2]; oral, 45 mg, 45 mg fed, read-out: t 1/2λz (converted)) of the same compound?
**A.** Its half-life is 58 h.

**Q.** What about the Cmax ([2]; oral, 135 mg, 135 mg fasted) of the same compound?
**A.** The Cmax was 1090 nM.

**Q.** What about the Tmax ([2]; oral, 135 mg, 135 mg fasted) of the same compound?
**A.** Its Tmax is 0.74 h.

**Q.** What about the Vd/F ([2]; oral, 135 mg, 135 mg fasted) of the same compound?
**A.** The Vd/F was 1450 L.

**Q.** And the half-life ([2]; oral, 135 mg, 135 mg fasted, read-out: t 1/2λz (converted))?
**A.** Its half-life is 48.4 h.

**Q.** And the Cmax ([2]; oral, 405 mg, 405 mg fasted)?
**A.** The Cmax was 3040 nM.

**Q.** What about the Tmax ([2]; oral, 405 mg, 405 mg fasted) of the same compound?
**A.** The Tmax was 0.75 h.

**Q.** And the Vd/F ([2]; oral, 405 mg, 405 mg fasted)?
**A.** The Vd/F was 1270 L.

**Q.** And the half-life ([2]; oral, 405 mg, 405 mg fasted, read-out: t 1/2λz (converted))?
**A.** The half-life was 38.1 h.

**Q.** And the half-life ([2]; po, single oral doses 5–405 mg fasted, range across doses, read-out: plasma half-life (t 1/2λz estimates))?
**A.** The half-life was 38.2 to 50 h.

**Q.** And the “human plasma protein binding” value [3]?
**A.** The value was 65%.

**Q.** And the “involvement of CYP3A4 in metabolism” value (CYP3A4)?
**A.** Its value is “involved in the metabolism”.

**Q.** And the “inhibition of URAT1 uric acid transport” value [4]?
**A.** Its value is “does not inhibit”.
